# According to patent US6413947B1, “Anilide derivative, production and use thereof” (Takeda Chemical Industries, Ltd., priority 1997, dated 2002):
row,melting point,SMILES
1,188 to 190 °C,"Cc1ccc(-c2ccc3c(c2)C=C(C(=O)Nc2ccc(Cc4cccc[n+]4[O-])cc2)CCO3)cc1 [Compound 162, N-[4—(1-oxidopyridin-2-ylmethyl)phenyl]-7—(4-methylphenyl)-2,3-dihydro-1-benzoxepine-4-carboxamide]"
2,254 °C (dec.),"Cc1ccc(-c2ccc3c(c2)C=C(C(=O)Nc2ccc(Cc4c(O)ccc[n+]4[O-])cc2)CCO3)cc1 [Compound 175, N-[4—(1-oxido-3-hydroxypyridin-2-ylmethyl)phenyl]-7—(4-methylphenyl)-2,3-dihydro-1-benzoxepine-4-carboxamide]"
3,174 to 176 °C,"CCOc1ccc(-c2ccc3c(c2)C=C(C(=O)Nc2ccc(CN(C)C4CCOCC4)cc2)CCO3)cc1 [Compound 185, 7—(4-ethoxyphenyl)-N-(4-[N-methyl-N-(tetrahydropyran-4-yl)aminomethyl]phenyl]-2,3-dihydro-1-benzoxepine-4-carboxamide]"
4,139 to 141 °C,"CCSc1ccc(-c2ccc3c(c2)C=C(C(=O)Nc2ccc(CN(C)C4CCOCC4)cc2)CCN3C)cc1 [Compound 320, 7-(4-ethylthiophenyl)-1-methyl-N-[4-[[N-methyl-N-(tetrahydro-2H-pyran-4-yl)amino]methyl]phenyl]-2,3-dihydro-1-benzazepine-4-carboxamide]"
5,152 to 153 °C,"O=C(Nc1cccc(CN2CCCCC2)c1)C1=Cc2cc(-c3ccccc3)ccc2CC1 [Compound 217, 7-phenyl-N-[3—(piperidinomethyl)phenyl]-3,4-dihydronaphthalene-2-carboxamide]"
6,249 to 250 °C,"CN1CCCN(C)P1(=O)Cc1ccc(NC(=O)C2=Cc3cc(-c4ccccc4)ccc3CC2)cc1 [Compound 89, 2—(4—(3,4-dihydro-7-phenyl-naphthalene-2-carbonyl-amino)benzyl)-1,3-dimethyl-1,3,2-diazaphosphorinane-2-oxide]"
7,208 to 210 °C,"Cc1ccc(-c2ccc3c(c2)C=C(C(=O)Nc2ccc(C(O)c4cccc[n+]4[O-])cc2)CCO3)cc1 (stereo not drawn) [Compound 167, N-[4-[hydroxy(1-oxidopyridin-2-yl)methyl]phenyl]-7—(4-methylphenyl)-2,3-dihydro-1-benzoxepine-4-carboxamide]"
8,233 to 235 °C,"CN(Cc1ccc(NC(=O)C2=Cc3cc(-c4ccc(S(C)(=O)=O)cc4)ccc3OCC2)cc1)C1CCOCC1 [Compound 273, 7-(4-methylsulfonylphenyl)-N-[4-[N-methyl-N-(tetra-hydropyran-4-yl)aminomethyl]phenyl]-2,3-dihydro-1-benzoxepine-4-carboxamide]"
9,163 to 164 °C,"O=C(Nc1ccc(CN2CCCCC2)cc1)C1=Cc2cc(-c3ccccc3)ccc2CC1 [Compound 4, 7-phenyl-N-[4—(piperidinomethyl)phenyl]-3,4-dihydronaphthalene-2-carboxamide]"
10,216 to 220 °C,"CN(Cc1ccc(NC(=O)/C=C/c2ccc(-c3ccc(C(C)(C)C)cc3)s2)cc1)C1CCOCC1 [Compound 276, (E)-3-[5-(4-tert-butylphenyl)thiophen-2-yl]-N-[4-[N-methyl-N-(tetrahydropyran-4-yl)aminomethyl]phenyl]acrylamide]"
11,282 to 283 °C (dec.),"Cc1ccc(-c2ccc3c(c2)C=C(C(=O)Nc2ccc(CP4(=O)CCCCC4)cc2)CCC3)cc1 [Compound 252, 2-(4-methylphenyl)-N-(4-((1-oxophosphorinane-1-yl)methyl)phenyl)-6,7-dihydro-5H-benzocycloheptene-8-carboxamide]"
12,133 to 139 °C,"COc1ccc(-c2ccc3c(c2)C=C(C(=O)Nc2ccc(CN(C)C4CCC(=O)CC4)cc2)CCS3)cc1 [Compound 284, 7-(4-methoxyphenyl)-N-[4-[N-methyl-N-(4-oxocyclohexyl)aminomethyl]phenyl]-2,3-dihydro-1-benzothiepine-4-carboxamide]"
